Experimental data as given in ChEMBL document CHEMBL3808275, “Design, synthesis and SARs of novel salicylanilides as potent inhibitors of RANKL-induced osteoclastogenesis and bone resorption” (Eur J Med Chem, 2016).

Tests used:
[1] = Cytotoxicity against mouse RAW264.7 cells assessed as survival rate at 2.5 uM after 24 hrs by MTT assay; format: cell-based; conditions: read-out: Survival
[2] = Cytotoxicity against mouse RAW264.7 cells assessed as reduction in cell viability after 24 hrs by MTT assay; format: cell-based
[3] = tested on: RAW264.7; test: Cytotoxicity against mouse RAW264.7 cells assessed as reduction in cell viability at 5 uM after 24 hrs by MTT assay; format: cell-based; conditions: raw264.7, 24 h
[4] = tested on: RAW264.7; test: Inhibition of RANKL-induced osteoclast differentiation in mouse RAW264.7 cells assessed as TRAP-positive multinucleated cells level at 2.5 uM incubated with compound in presence of RANKL for 4 days by TRAP staining based light microscopic analysis relative to RANKL alone; format: functional; design: scale not given: the % may be the effect or the level left
[5] = tested on: RAW264.7; test: Inhibition of RANKL-induced osteoclast differentiation in mouse RAW264.7 cells assessed as reduction in TRAP-positive multinucleated cells level incubated with compound in presence of RANKL for 4 days by TRAP staining based light microscopic analysis relative to RANKL alone; format: functional, cell-based; conditions: RAW264.7, 96 h

| SMILES | viability at 24 h, 2.5 µM [1] [%] | CC50 at 24 h [2] [µM] | Activity [3] | Activity [4] [%] | IC50 [5] [µM] |
| --- | --- | --- | --- | --- | --- |
| O=C(Nc1ccc(Br)cc1F)c1cc(I)ccc1O | 104 | 8.4 | Toxic | 29.9 |  |
| O=C1c2cc(F)ccc2Oc2cc([N+](=O)[O-])ccc2N1c1ccc(I)cc1F | 95.3 | > 40 | Toxic | 85.3 |  |
| O=C(Nc1ccc(I)cc1F)c1cc(Cl)ccc1O | 108 | 7.6 | Toxic | 2.9 | 1.84 |
| O=c1oc2ccc(F)cc2c(=O)n1-c1ccc(F)cc1F | 103 | 19.9 | Toxic | 89.7 |  |
| O=c1oc2ccc(Cl)cc2c(=O)n1-c1ccc(F)cc1F | 116 | 13.4 | Toxic | 91.9 |  |
| O=c1oc2ccc(Br)cc2c(=O)n1-c1ccc(F)cc1F | 107 | 16 | Toxic | 98.3 |  |
| O=c1oc2ccc(F)cc2c(=O)n1-c1ccc(Br)cc1F | 103 | 7.2 | Toxic | 25.5 |  |
| O=C(Nc1ccc(Br)cc1F)c1cc(Br)ccc1O | 99.5 | 7.8 | Toxic | 33.1 |  |
| O=c1oc2ccc(Cl)cc2c(=O)n1-c1ccc(Cl)cc1F | 99.4 | 6.8 | Toxic | 32.8 |  |
| O=C(Nc1ccc(F)cc1F)c1cc(I)ccc1O | 103 | 13.7 | Toxic | 80.5 |  |
| O=C(Nc1ccc(F)cc1F)c1cc(F)ccc1O | 99.2 | 15.7 | Toxic | 93.7 |  |
| O=c1oc2ccc(I)cc2c(=O)n1-c1ccc(I)cc1F | 107 | 7.6 | Toxic | 36.1 |  |
| O=c1oc2ccc(I)cc2c(=O)n1-c1ccc(F)cc1F | 97.5 | 15.7 | Toxic | 84.8 |  |
| O=C1c2cc(Br)ccc2Oc2cc([N+](=O)[O-])ccc2N1c1ccc(F)cc1F | 94 | > 40 | Toxic | 90.1 |  |
| O=C(O)c1cc(Cl)ccc1O [5-CHLOROSALICYLIC ACID] | 113 | > 40 | Toxic | 96.6 |  |
| O=c1oc2ccc(I)cc2c(=O)n1-c1ccc(Br)cc1F | 109 | 8.3 | Toxic | 58.2 |  |
| O=C(Nc1ccc(Br)cc1F)c1cc(Cl)ccc1O | 106 | 7.8 | Toxic | 23.3 | 2.14 |
| O=C(Nc1ccc(F)cc1F)c1cc(Cl)ccc1O | 109 | 14.6 | Toxic | 93.3 |  |
| O=C(Nc1ccc(Cl)cc1F)c1cc(Br)ccc1O | 103 | 9.2 | Toxic | 39.6 |  |
| O=C(Nc1ccc(Cl)cc1F)c1cc(F)ccc1O | 99.5 | 7.7 | Toxic | 27.1 |  |
| O=c1oc2ccc(Br)cc2c(=O)n1-c1ccc(I)cc1F | 96.8 | 7.9 | Toxic | 39 |  |
| O=C1c2cc(Cl)ccc2Oc2cc([N+](=O)[O-])ccc2N1c1ccc(F)cc1F | 99.6 | > 40 | Toxic | 70.6 |  |
| O=C1c2ccccc2Oc2cc([N+](=O)[O-])ccc2N1c1ccc(I)cc1F | 87.2 | > 40 | Toxic | 88.6 |  |
| O=C(O)c1cc(I)ccc1O | 98.9 | > 40 | Toxic | 90.5 |  |
| O=C(Nc1ccc(Cl)cc1F)c1cc(Cl)ccc1O | 109 | 8 | Toxic | 15.8 | 2.12 |
| O=C(O)c1cc(F)ccc1O | 102 | > 40 | Toxic | 90.9 |  |

| SMILES | viability at 24 h, 2.5 µM [1] [%] | CC50 at 24 h [2] [µM] | Activity [3] | Activity [4] [%] | IC50 [5] [µM] |
| --- | --- | --- | --- | --- | --- |
| O=C1c2cc(Cl)ccc2Oc2cc([N+](=O)[O-])ccc2N1c1ccc(Cl)cc1F | 100 | > 40 | Toxic | 59.4 |  |
| O=C1c2cc(I)ccc2Oc2cc([N+](=O)[O-])ccc2N1c1ccc(I)cc1F | 98.9 | > 40 | Toxic | 55.7 |  |
| O=c1oc2ccc(Br)cc2c(=O)n1-c1ccc(Cl)cc1F | 82.1 | 7.5 | Toxic | 67.4 |  |
| O=C1c2cc(Br)ccc2Oc2cc([N+](=O)[O-])ccc2N1c1ccc(Br)cc1F | 88.7 | > 40 | Toxic | 84.2 |  |
| O=C1c2cc(Br)ccc2Oc2cc([N+](=O)[O-])ccc2N1c1ccc(Cl)cc1F | 102 | > 40 | Toxic | 67.1 |  |
| O=c1oc2ccc(I)cc2c(=O)n1-c1ccc(Cl)cc1F | 117 | 8.9 | Toxic | 38 |  |
| O=C1c2cc(Br)ccc2Oc2cc([N+](=O)[O-])ccc2N1c1ccc(I)cc1F | 93.2 | > 40 | Toxic | 78.1 |  |
| O=C1c2cc(Cl)ccc2Oc2cc([N+](=O)[O-])ccc2N1c1ccc(I)cc1F | 89.3 | > 40 | Toxic | 73.8 |  |
| O=C1c2cc(F)ccc2Oc2cc([N+](=O)[O-])ccc2N1c1ccc(F)cc1F | 90.1 | > 40 | Toxic | 92.4 |  |
| O=C1c2ccccc2Oc2cc([N+](=O)[O-])ccc2N1c1ccc(Cl)cc1F | 103 | > 40 | Toxic | 97.1 |  |
| O=C1c2cc(I)ccc2Oc2cc([N+](=O)[O-])ccc2N1c1ccc(Cl)cc1F | 94.9 | > 40 | Toxic | 75.2 |  |
| O=c1oc2ccc(F)cc2c(=O)n1-c1ccc(Cl)cc1F | 107 | 7.9 | Toxic | 29.8 |  |
| O=C1c2cc(I)ccc2Oc2cc([N+](=O)[O-])ccc2N1c1ccc(F)cc1F | 98.2 | > 40 | Toxic | 85.4 |  |
| O=C(Nc1ccc(Br)cc1F)c1cc(F)ccc1O | 102 | 7.9 | Toxic | 8.7 | 1.86 |
| O=c1oc2ccc(Cl)cc2c(=O)n1-c1ccc(Br)cc1F | 114 | 8.1 | Toxic | 45.5 |  |
| O=C(Nc1ccc(Cl)cc1F)c1cc(I)ccc1O | 94 | 8.5 | Toxic | 26.1 |  |
| O=C(O)c1cc(Br)ccc1O | 101 | > 40 | Toxic | 96.5 |  |
| O=c1oc2ccc(Br)cc2c(=O)n1-c1ccc(Br)cc1F | 103 | 7.2 | Toxic | 54.9 |  |
| O=C1c2cc(F)ccc2Oc2cc([N+](=O)[O-])ccc2N1c1ccc(Br)cc1F | 98.8 | > 40 | Toxic | 88.7 |  |
| O=C(Nc1ccc(I)cc1F)c1cc(I)ccc1O | 94.2 | 6 | Toxic | 35.1 |  |
| O=c1oc2ccccc2c(=O)n1-c1ccc(Cl)cc1F | 92.5 | 24.4 | Toxic | 71.1 |  |
| O=C(Nc1ccc(F)cc1F)c1cc(Br)ccc1O | 91.9 | 13.8 | Toxic | 95.2 |  |
| O=c1oc2ccccc2c(=O)n1-c1ccc(I)cc1F | 105 | 24.5 | Toxic | 66.7 |  |
| O=C1c2cc(I)ccc2Oc2cc([N+](=O)[O-])ccc2N1c1ccc(Br)cc1F | 93.4 | > 40 | Toxic | 84.8 |  |
| O=C1c2cc(Cl)ccc2Oc2cc([N+](=O)[O-])ccc2N1c1ccc(Br)cc1F | 100 | > 40 | Toxic | 77.2 |  |
| O=C1c2cc(F)ccc2Oc2cc([N+](=O)[O-])ccc2N1c1ccc(Cl)cc1F | 91.2 | > 40 | Toxic | 93.1 |  |
